The record followed here is ChEMBL document CHEMBL1158021, “Okaramines H and I, new okaramine congeners, from aspergillus aculeatus” (1999).

The assay deals with Bombyx mori. Briefly: Insecticidal activity against third instar larvae of silkworm assessed per gm diet. The format is functional.
Compound `C=CC(C)(C)N1c2ccccc2[C@]2(O)C[C@@H]3C(=O)N4/C=C\C(C)(C)c5[nH]c6ccccc6c5/C=C\4C(=O)N3[C@H]12` [OKARAMINE A] gave an LD50 of 8 µg.

`CO[C@@H]1[C@]2(O)C(=O)N3/C=C\C(C)(C)c4[nH]c5ccccc5c4/C=C\3C(=O)N2[C@]23[C@H](C)C(C)(C)N2c2ccccc2[C@]13O` [OKARAMINE B] gave an LD50 of 0.2 µg. The compound `CC(C)=CCN1c2ccccc2[C@]2(O)C[C@@H]3C(=O)N4/C=C\C(C)(C)c5[nH]c6ccccc6c5/C=C\4C(=O)N3[C@H]12` [OKARAMINE H] showed an LD50 greater than 100 µg. `CC1(C)/C=C\N2C(=O)[C@H]3C[C@@]4(O)c5ccccc5N[C@H]4N3C(=O)/C2=C/c2c1[nH]c1ccccc21` [OKARAMINE I] displayed an LD50 greater than 100 µg.
